“And” between values parts separate entries of the source, which are not always exact repeats. Equal entries are not always repeated.
Experiments:
[1] = parameters: method as in PMID 24055006, PMID 23728001, PMID 9124305, PMID 2671740; conditions: cited from earlier work
[2] = test system: IMCD urea transporter UT-As; parameters: method as in PMID 25298345, PMID 12133842, PMID 12965892, PMID 23597791, PMID 24210002; conditions: rodents, compared to the other thienoquinolin lead compounds; cited from earlier work
[3] = Bile excretion in bile duct-cannulated rats; assay type: in vivo; conditions: bile duct-cannulated rat, oral PU-48 SNEDDS 12 mg/kg
Description: Internal standard (IS, 25 μL) was added to 50 μL plasma, urine, or bile sample in a clean tube, placed into a water bath at 37 °C, and dried under a gentle stream of nitrogen gas, followed by the addition of 0.5 mL of ethyl acetate for liquid-liquid extraction. The mixture was shaken by a vortex mixer for 3 min, and then centrifuged at 8000 rpm (4200× g) for 10 min at 4 °C. After centrifugation, the upper organic phase was transferred into a clean centrifuge tube and then dried it again. The combined upper organic phases were evaporated to dryness at 37 °C under a gentle stream of nitrogen gas. The residue was reconstituted with 50 μL acetonitrile and then centrifuged at 13,000 rpm (12,000× g) for 10 min at 4 °C, the upper liquid was transferred into sample vials. Finally, 5 μL aliquots were injected into the LC–MS/MS system to analyze. Each tissue samples were homogenized in normal saline (0.9% NaCl, 1:3, w/v), and then centrifuged at 10,000× g for 10 min to get the supernatant. Other steps were the same as plasma sample preparation.
Six male rats were given single orally administration of PU-48 (12 mg/kg, 1.2 mg/mL in the SNEDDS formulation) and housed in separate stainless-steel metabolism cages. Both feces and urine samples were collected at 0–1, 1–2, 2–4, 4–6, 6–8, 8–12, 12–24, 24–48, 48–72 and 72–96 h. In a separate study, bile samples were collected 0–1, 1–2, 2–4, 4–6, 6–8, 8–12, 12–24, 24–48, 48–72 and 72–96 h after oral administration of PU-48 (12 mg/kg, 1.2 mg/mL in the SNEDDS formulation) to six bile duct-cannulated rats.

For `COC(=O)c1sc2nc3ccc(OC)cc3cc2c1N` [PU-48, Methyl 3-amino-6-methoxythieno [2,3-b] quinoline-2-carboxylate], the “Serum levels of sodium, chloride, or potassium” value [1] is given as “did not change”, the “Selective inhibition towards IMCD urea transporter UT-As” value [2] is given as “higher selective inhibition” and the “Accumulative Excretion Amount, bile” value ([3]; 0–1 h) is given as 78.5 ± 60.3 ng. For the same molecule, the “Accumulative Excretion Percentage, bile” value ([3]; 0–1 h) was 0.0027 ± 0.0021%, the “Excretion Amount, bile” value ([3]; 0–1 h) was 78.5 ± 60.3 ng and the “PU-48 Concentration in bile” value ([3]; 0–1 h) was 143.8 ± 72.5 ng/mL. For the same molecule, the “Accumulative Excretion Amount, bile” value ([3]; 1–2 h) was 153.6 ± 115.5 ng, the “Accumulative Excretion Percentage, bile” value ([3]; 1–2 h) was 0.0054 ± 0.0041% and the “Excretion Amount, bile” value ([3]; 1–2 h) was 75.2 ± 70.3 ng. The “PU-48 Concentration in bile” value ([3]; 1–2 h) was 123.1 ± 44.3 ng/mL, the “Accumulative Excretion Amount, bile” value ([3]; 2–4 h) was 218.9 ± 128.9 ng and the “Accumulative Excretion Percentage, bile” value ([3]; 2–4 h) was 0.0076 ± 0.0046%. The “Excretion Amount, bile” value ([3]; 2–4 h) was 65.3 ± 39.8 ng, the “PU-48 Concentration in bile” value ([3]; 2–4 h) was 84.7 ± 20.1 ng/mL and the “Accumulative Excretion Percentage, bile” value ([3]; 4–6 h) was 0.0085 ± 0.0044%. For the same molecule, the “Excretion Amount, bile” value ([3]; 4–6 h) was 24.5 ± 14.3 ng, the “PU-48 Concentration in bile” value ([3]; 4–6 h) was 47.6 ± 19.4 ng/mL and the “Accumulative Excretion Percentage, bile” value ([3]; 6–8 h) was 0.0091 ± 0.0042%. For the same molecule, the “Excretion Amount, bile” value ([3]; 6–8 h) was 18.7 ± 13.4 ng, the “PU-48 Concentration in bile” value ([3]; 6–8 h) was 41.1 ± 21.9 ng/mL and the “Accumulative Excretion Amount, bile” value ([3]; 8–12 h) was 301.8 ± 105.8 ng. For the same molecule, the “Accumulative Excretion Percentage, bile” value ([3]; 8–12 h) was 0.0105 ± 0.0037%, the “Excretion Amount, bile” value ([3]; 8–12 h) was 39.7 ± 45.9 ng and the “PU-48 Concentration in bile” value ([3]; 8–12 h) was 33.3 ± 17.4 ng/mL. For the same molecule, the “Accumulative Excretion Amount, bile” value ([3]; 12–24 h) was 339.9 ± 122.8 ng, the “Accumulative Excretion Percentage, bile” value ([3]; 12–24 h) was 0.0118 ± 0.0042% and the “Excretion Amount, bile” value ([3]; 12–24 h) was 38.1 ± 37.4 ng. The “PU-48 Concentration in bile” value ([3]; 12–24 h) was 33.4 ± 15.5 ng/mL, the “Accumulative Excretion Amount, bile” value ([3]; 24–48 h) was 350.7 ± 124.1 ng and the “Accumulative Excretion Percentage, bile” value ([3]; 24–48 h) was 0.0122 ± 0.0043%. For the same molecule, the “Excretion Amount, bile” value ([3]; 24–48 h) was 10.8 ± 3.2 ng, the “PU-48 Concentration in bile” value ([3]; 24–48 h) was 9.4 ± 5.4 ng/mL and the “Accumulative Excretion Amount, bile” value ([3]; 48–72 h) was 355.5 ± 120.8 ng. For the same molecule, the “Accumulative Excretion Percentage, bile” value ([3]; 48–72 h) was 0.0123 ± 0.0042%, the “Excretion Amount, bile” value ([3]; 48–72 h) was 4.8 ± 4.7 ng and the “PU-48 Concentration in bile” value ([3]; 48–72 h) was 5.1 ± 3.7 ng/mL. For the same molecule, the “Accumulative Excretion Amount, bile” value ([3]; 72–96 h (within 96 h)) was 357.5 ± 120.1 ng, the “Accumulative Excretion Percentage, bile” value ([3]; 72–96 h (within 96 h)) was 0.0124 ± 0.0041% and 0.0124 ± 0.004% and 0.0124% and the “Excretion Amount, bile” value ([3]; 72–96 h) was 2.0 ± 1.8 ng. For the same molecule, the “PU-48 Concentration in bile” value ([3]; 72–96 h) was 1.4 ± 0.9 ng/mL.
